Results on 23 compounds are retold here after patent US20250066323A1, “INHIBITORS OF HUMAN RESPIRATORY SYNCYTIAL VIRUS AND METAPNEUMOVIRUS” (priority 2023, published 2025).

Like-named read-outs stand apart in the source and are kept apart here.

In one assay the test system is RSV-A2-GFP. Briefly: RSV-A2-GFP viral replication assay. It counts as cell-based, Human Respiratory Syncytial Virus. An excerpt:
GFP sequence was derived from pJTI™ R4 Dest CMV N-EmGFP pA Vector (Invitrogen) and was cloned into the intergenic sequence between wild-type RSV-A2 P and M genes using standard recombineering techniques. Recombinant RSV-A2-GFP was propagated in Hep2 cells (human cells contains HeLa marker chromosomes and were derived via HeLa contamination, ATCC CCL-23) with infection Multiplicity of Infection (MOI) of 0.1. Virus was harvested 3 days after infection by collecting all culture material and freeze-thaw the viral culture in liquid nitrogen for at least 5 times. To generating virus working stocks, thaw frozen samples in 37° C. water bath then centrifuge at 218 g for 15 min at 4° C. Add 1/10 of 10×SPG (Biological Industries 06-3061-01-5A), mix, aliquot supernatant, and quick-freeze in liquid nitrogen then transfer to −80° C. freezer for storage. Virus titer was determined by automated plaque assay in HEp-2 cells following methods described previously (Wen Z. et al.; J Virol Methods. 2019 January; 263:88-95).
Calu-1 cells (human lung epidermoid carcinoma, ATCC HTB-54) assay ready freezedown (ARF generation described separately) were used in assays. Compound plates were prepared by dispensing compounds dissolved in DMSO into wells of 384 well coming 3985 polystyrene flat clear bottom optical imaging microplates (202.5 nL/well) using an ECHO acoustic dispenser. Each compound was tested in a 10-point serial 3-fold dilution (typical final concentrations: 403 nM-0.02 nM and 40.3 nM-0.002 nM). […] To set up the assay, thaw ARF vial(s) in 37° C. water bath until small ice crystal remain and resuspend into assay media (DMEM containing 2% FBS, 100 U/ml Penicillin-Streptomycin). Count cells using default parameters on ViCell and dilute to 20,000 cells per ml in assay media. Add RSV GFP to cells at 24,000 pfu/ml (MOI=1.2). Mix by gentle inversion. 10 μl/well of 100% DMSO was dispensed to CellTiter-Glo (CTG) assay Max_E controls wells. Dispense cells at 50 μl/well using Bravo and 50 μl filtered tips into compound plates. Cover plates with MicroClime lids loaded with 7.5 ml of assay media to minimize evaporation. Incubate at 37 degrees C. and 5% CO2 for 96 hrs. Following incubation, distinct, GFP-expressing cells are counted using an Acumen imaging system with appropriate settings. A same-well CTG assay is performed by adding 10 μl/well reconstituted CellTiter-Glo reagent (Promega G7573) and reading plates on PerkinElmer Envision according to manufacturer's instructions. Raw data were loaded and analyzed in ActivityBase. Antiviral IC50 and cytotoxicity CC50 values were determined using a 4 parameter logistic fit based on the Levenberg-Marquardt algorithm. Model: 205-4 Parameter Logistic.
Calu-1 cells were purchased from ATCC (Cat #HTB-54) and are expanded in growth media (DMEM containing 10% FBS, 100 U/ml Penicillin-Streptomycin). To make ARF, remove and discard cell culture media, briefly rinse the cell layer with PBS to remove all traces of serum. Add 2.5 ml of TrypLE Express solution and incubate until cells dislodge, then add growth media and resuspend the cells by gentle pipetting. Count cells for concentration and determine viability using a ViCell. Centrifuge at RT, 300 g for 5 min to pellet cells. Gently aspirate supernatant, flick pellet to loosen cells. Resuspend cells in an appropriate volume of freezing medium (DMEM containing 10% DMSO, 10% FBS, 100 U/ml Penicillin-Streptomycin) to achieve 5×10^6/ml. Transfer 1 ml of cell suspension to freezing vials. Put vials to CoolCell cryopreservation container and place CoolCell container upright in a −80° C. freezer overnight before transferring vials to liquid nitrogen vapor for storage.

The next assay deals with hMPV-GFP. Briefly: hMPV-GFP viral replication assay. It counts as cell-based, human metapneumovirus. The note with it: read-out: hMPV EC50. How it is done:
GFP expressing rgHMPV #3 p3 was generated in Dr. Buchholz's lab (Biacchesi S. et al., J Virol. 2007 June; 81(11): 6057-6067.) and propagated in VERO cells (kidney tissue derived from a normal, adult African green monkey. ATCC Cat #CCL-81) with infection Multiplicity of Infection (MOI) of 0.1. Virus was harvested 4 days after infection by collecting all culture material and freeze-thaw the viral culture in liquid nitrogen twice. To generating virus working stocks, thaw frozen samples in 37° C. water bath then centrifuge at 218 g for 15 min at 4° C. Add 1/10 of 10×SPG (Biological Industries 06-3061-01-5A), mix, aliquot supernatant, and quick-freeze in liquid nitrogen then transfer to −80° C. freezer for storage. Virus titer was determined by performing titration test in 96-well plates and calculate approximate virus titer using GFP event/well data.
Compound plates were prepared by dispensing compounds dissolved in DMSO into wells of 384 well coming 3985 polystyrene flat clear bottom optical imaging microplates (202.5 nL/well) using an ECHO acoustic dispenser. Each compound was tested in a 10-point serial 3-fold dilution (typical final concentrations: 40,300 nM-2 nM). […] Continuous culture of VERO cells were maintained in complete culture media (OptiMEM supplemented with 2 mM GlutaMAX™ and 100 U/ml Penicillin-Streptomycin). To set up the assay, trypsinize VERO cells with 0.25% Trypsin-EDTA until cells dislodge, then re-suspend cells with 1 mL FBS. Spin down cells at 300 g for 5 min and wash cells twice in culture media, then count cells using default parameters on ViCell. Cells were then diluted to 100,000 cells/ml (5,000 cells/50 μl) in complete culture media+TrypLE Select (80 μl/ml). Add hMPV-GFP virus to cells at 125,000 pfu/ml (MOI=1.25). Mix by gentle inversion. 10 μl/well of 100% DMSO was dispensed to CellTiter-Glo (CTG) assay Max_E controls wells. Dispense cells at 50 μl/well using Bravo and 50 μl filtered tips into compound plates. Cover plates with MicroClime lids loaded with 7.5 ml of assay media to minimize evaporation. Lightly shake plate for 10 minutes at room temperature then incubate at 37 degrees C. and 5% CO2 for 48 hrs. Following incubation, distinct, GFP-expressing cells are counted using an Acumen imaging system with appropriate settings. A same-well CTG assay is performed by adding 10 μl/well reconstituted CellTiter-Glo reagent (Promega G7573) and reading plates on PerkinElmer Envision according to manufacturer's instructions. Raw data were loaded and analyzed in ActivityBase. Antiviral IC50 and cytotoxicity CC50 values were determined using a 4 parameter logistic fit based on the Levenberg-Marquardt algorithm. Model: 205-4 Parameter Logistic.

[1] abbreviates: human respiratory syncytial virus, Calu-1, 96 h, read-out: RSV EC50, Calu-1 cells, RSV-A2-GFP MOI=1.2, 96 hrs, GFP-expressing cells counted.
The mark [2] stands for this setting: human metapneumovirus, Vero, 48 h.
The mark [3] stands for this setting: read-out: RSV EC50, Calu-1 cells, RSV-A2-GFP MOI=1.2, 96 hrs, GFP-expressing cells counted.
[4] abbreviates: VERO cells, hMPV-GFP MOI=1.25, 48 hrs, GFP-expressing cells counted.

Broadly, the EC50 is the concentration needed to bring the measured effect to its halfway point. As to `CC(C)(N)c1cc(-c2ccc(F)cc2)nc(C(C)(O)CNC(=O)c2cc(-c3cscn3)ns2)c1` (single isomer, unassigned) [Example 09-B], the EC50 in the assay with RSV-A2-GFP (setting [1]) is under 0.01 µM; in the assay on hMPV-GFP (setting [2]), over 0.1 µM.
The corresponding values for `CC(C)(N)c1cc(-c2ccc(F)cc2)nc(C(C)(O)CNC(=O)c2cc(-c3ncccn3)ns2)c1` (single isomer, unassigned) [Example 10-B] are under 0.01 µM and over 0.1 µM.
For the compound `COc1nn(-c2ncccn2)cc1C(=O)NCC(C)(O)c1cc(C(C)(C)N)cc(-c2ccc(F)cc2)n1` (single isomer, unassigned) [Example 11-B], the EC50 is under 0.01 µM in the assay with RSV-A2-GFP (setting [1]) and over 0.1 µM with hMPV-GFP (setting [2]).
As to `Cn1nc(-c2cscn2)cc1C(=O)NCC(C)(O)c1cc(C(C)(C)N)cc(-n2ccc3c(F)cccc32)n1` (single isomer, unassigned) [Example 12-B], the figures for the EC50 in the assay on RSV-A2-GFP (setting [1]) and with hMPV-GFP (setting [2]) were under 0.01 µM and over 0.1 µM, respectively.
On to `Cn1nc(-c2cscn2)cc1C(=O)NCC(C)(O)c1cc(C(C)(C)N)cc(-c2ccc(Cl)cc2)n1` (single isomer, unassigned) [Example 13-B], for which the EC50 with RSV-A2-GFP (setting [1]) was under 0.01 µM; in the assay with hMPV-GFP (setting [2]) it was over 0.1 µM.
With `Cc1ccc(-c2cc(C(C)(C)N)cc(C(C)(O)CNC(=O)c3cc(-c4cscn4)nn3C)n2)cc1` (single isomer, unassigned) [Example 14-B], the EC50 with RSV-A2-GFP (setting [1]) is under 0.01 µM; in the assay with hMPV-GFP (setting [2]), over 0.1 µM.
The corresponding values for `Cn1nc(-c2cscn2)cc1C(=O)NCC(C)(O)c1cc(C(C)(C)N)cc(-c2ccc(F)c(F)c2)n1` (single isomer, unassigned) [Example 15-B] are under 0.01 µM and over 0.1 µM.
For `Cn1nc(-c2cscn2)cc1C(=O)NCC(C)(O)c1cc(C(C)(C)N)cc(-c2ccc(F)c(Cl)c2)n1` (single isomer, unassigned) [Example 16-B], the EC50 is under 0.01 µM with RSV-A2-GFP (setting [1]) and over 0.1 µM in the assay with hMPV-GFP (setting [2]).
With `Cn1nc(-c2cscn2)cc1C(=O)NCC(C)(O)c1cc(C(C)(C)N)cc(-c2ccc(Cl)c(F)c2)n1` (single isomer, unassigned) [Example 17-B], the concentration for a half-maximal effect (EC50) in the assay with RSV-A2-GFP (setting [1]) was under 0.01 µM; in the assay on hMPV-GFP (setting [2]), over 0.1 µM.
Consider `Cn1nc(-c2cscn2)cc1C(=O)NCC(C)(O)c1cc(C(C)(C)N)cc(-c2ccc(F)cc2F)n1` (single isomer, unassigned) [Example 18-B], for which the results for the EC50 in the assay on RSV-A2-GFP (setting [1]) and in the assay on hMPV-GFP (setting [2]) were under 0.01 µM and over 0.1 µM, respectively.
With `Cc1cc(F)ccc1-c1cc(C(C)(C)N)cc(C(C)(O)CNC(=O)c2cc(-c3cscn3)nn2C)n1` (single isomer, unassigned) [Example 19-B], the EC50 is under 0.01 µM with RSV-A2-GFP (setting [1]) and over 0.1 µM in the assay on hMPV-GFP (setting [2]).
In the case of `Cn1nc(-c2cscn2)cc1C(=O)NCC(C)(O)c1cc(C(C)(C)N)cc(-c2ccc(F)c(F)c2F)n1` (single isomer, unassigned) [Example 20-B], the EC50 with RSV-A2-GFP (setting [1]) is under 0.01 µM; with hMPV-GFP (setting [2]), over 0.1 µM.
In the case of `CCC(O)(CNC(=O)c1cc(-c2cscn2)nn1C)c1cc(C(C)(C)N)cc(-c2ccc(F)cc2)n1` (single isomer, unassigned) [Example 21-A], the EC50 with RSV-A2-GFP (setting [1]) is under 0.01 µM; in the assay with hMPV-GFP (setting [2]) it was over 0.1 µM.
With `CCC(O)(CNC(=O)c1cc(-c2cscn2)nn1C)c1cc(C(C)(C)N)cc(-c2ccc(F)cc2)n1` (single isomer, unassigned) [Example 21-B], the EC50 is 0.01 to 0.1 µM in the assay with RSV-A2-GFP (setting [3]) and over 0.1 µM in the assay on hMPV-GFP (setting [4]).
For the compound `Cc1nc(-c2ncccn2)sc1C(=O)NCC(O)(c1cc(C(C)(C)N)cc(-c2ccc(F)cc2)n1)C1CC1` (single isomer, unassigned) [Example 22-A], the EC50 in the assay with RSV-A2-GFP (setting [3]) and in the assay on hMPV-GFP (setting [2]) was over 0.1 µM in each case.
Consider `Cc1nc(-c2ncccn2)sc1C(=O)NCC(O)(c1cc(C(C)(C)N)cc(-c2ccc(F)cc2)n1)C1CC1` (single isomer, unassigned) [Example 22-B], for which the EC50 was under 0.01 µM with RSV-A2-GFP (setting [3]) and over 0.1 µM in the assay with hMPV-GFP (setting [4]).
Turning to `Cn1nc(-c2cscn2)cc1C(=O)NCC(O)(c1cc(C(C)(C)N)cc(-c2ccc(F)cc2)n1)C1CC1` (single isomer, unassigned) [Example 23-B], the EC50 in the assay on RSV-A2-GFP (setting [1]) is under 0.01 µM; with hMPV-GFP (setting [2]), over 0.1 µM.
On to `Cn1nc(-c2cscn2)cc1C(=O)NCC(O)(c1cc(C(C)(C)N)cc(-c2ccc(F)cc2)n1)C(F)F` (single isomer, unassigned) [Example 24-A], for which the EC50 in the assay with RSV-A2-GFP (setting [1]) is under 0.01 µM; with hMPV-GFP (setting [2]), over 0.1 µM.
For `Cn1nc(-c2cscn2)cc1C(=O)NCC(O)(c1cc(C(C)(C)N)cc(-c2ccc(F)cc2)n1)C(F)F` (single isomer, unassigned) [Example 24-B], the EC50 with RSV-A2-GFP (setting [3]) was 0.01 to 0.1 µM; in the assay on hMPV-GFP (setting [4]) it was over 0.1 µM.
As for `Cc1nc(-c2ncccn2)sc1C(=O)NCC(O)(c1cc(C(C)(C)N)cc(-c2ccc(F)cc2)n1)C(F)(F)F` (single isomer, unassigned) [Example 25-A], the EC50 is 0.01 to 0.1 µM in the assay with RSV-A2-GFP (setting [3]) and over 0.1 µM in the assay with hMPV-GFP (setting [2]).
In the case of `Cc1nc(-c2ncccn2)sc1C(=O)NCC(O)(c1cc(C(C)(C)N)cc(-c2ccc(F)cc2)n1)C(F)(F)F` (single isomer, unassigned) [Example 25-B], the EC50 with RSV-A2-GFP (setting [3]) and in the assay with hMPV-GFP (setting [4]) was over 0.1 µM throughout.
As to `Cn1nc(-c2cscn2)cc1C(=O)NCC(O)(c1cc(C(C)(C)N)cc(-c2ccc(F)cc2)n1)C(F)(F)F` (single isomer, unassigned) [Example 26-A], the EC50 is under 0.01 µM in the assay on RSV-A2-GFP (setting [1]) and over 0.1 µM in the assay with hMPV-GFP (setting [2]).
As for `Cn1nc(-c2cscn2)cc1C(=O)NCC(C)(O)c1cc(C2(C)CCNC2)cc(-c2ccc(F)cc2)n1` (single isomer, unassigned) [Example 27-A], the EC50 in the assay on RSV-A2-GFP (setting [3]) and with hMPV-GFP (setting [2]) was over 0.1 µM in each case.
